Values quoted from earlier work, collected in patent US20070003628A1, “Nanoparticulate clopidogrel formulations” (Elan Pharma International Limited, priority 2005, published 2007).
Where a name gives a salt, the structure may show the parent alone. Read-outs that look alike come from different tables or passages of the source.

What was measured:
[1] = not given; remark: listed apart in the source

SMILES: COC(=O)[C@H](c1ccccc1Cl)N1CCc2sccc2C1 [Clopidogrel bisulfate, methyl (+)-(S)-α-(2-chorophenyl)-6,7-dihydrothieno[3,2-c]pyridine-5(4H)-acetate sulfate (1:1)]
- solubility in ethyl ether (ethyl ether): practically insoluble
- solubility in methanol (methanol): dissolves freely
- solubility in methylene chloride (methylene chloride): dissolves sparingly
- solubility in water (pH 1.0): freely soluble
- solubility in water (water at neutral pH): practically insoluble
- rate of a combined end point of cardiovascular death, MI, or stroke, and of cardiovascular death, MI, stroke, or refractory ischemia ([1]; patients with acute coronary syndrome): decrease the rate
- rate of a combined end point of new ischemic stroke, new MI, and other vascular death ([1]; recent myocardial infarction, recent stroke or established arterial disease): reduce the rate

SMILES: COC(=O)[C@H](c1ccccc1Cl)N1CCc2sccc2C1 [clopidogrel]
- solubility in water (water, pH not stated): practically insoluble
